From ChEMBL document CHEMBL1201862, “PubChem BioAssay data set” (2004)
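Compound exposure: 48 hours, 5 concentrations, 96-well plates. Here, GI50 denotes the concentration required for 50% inhibition of growth.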 Activity calls are given as the source filed them. Rule as the data show it: active = GI50 up to about 1.1 µM and inactive = higher.

Key:
Experiment in all cases: DTP human tumour cell line panel, 48 h
[1] = test system: KM-20L2
[2] = test system: ACHN
[3] = test system: 786-0
[4] = test system: HL-60
[5] = test system: HCT-15
[6] = test system: CCRF-CEM
[7] = test system: SK-MEL-28
[8] = test system: TK-10
[9] = test system: M19-MEL
[10] = test system: NCI-H522
[11] = test system: MOLT-4
[12] = test system: NCI-H226
[13] = test system: HCC 2998
[14] = test system: SNB-75
[15] = test system: OVCAR-4
[16] = test system: HOP-92
[17] = test system: CAKI-1
[18] = test system: SF-268
[19] = test system: Malme-3M
[20] = test system: A549
[21] = test system: DMS-114
[22] = test system: UACC-62
[23] = test system: HT-29
[24] = test system: SK-OV-3
[25] = test system: EKVX
[26] = test system: SF-539
[27] = test system: HOP-18
[28] = test system: SK-MEL-2
[29] = test system: UO-31
[30] = test system: RPMI-8226
[31] = test system: OVCAR-8
[32] = test system: HCT-116
[33] = test system: XF498
[34] = test system: SN12C
[35] = test system: OVCAR-5
[36] = test system: DLD-1
[37] = test system: NCI-H23
[38] = test system: SF-295
[39] = test system: DMS-273
[40] = test system: SNB-78
[41] = test system: M14
[42] = test system: LOX IMVI
[43] = test system: U-251
[44] = test system: UACC-257
[45] = test system: KM12
[46] = test system: COLO 205
[47] = test system: LXFL 529
[48] = test system: SNB-19
[49] = test system: IGROV-1
[50] = test system: K562
[51] = test system: OVCAR-3
[52] = test system: SR
[53] = test system: SK-MEL-5
[54] = test system: NCI-H460
[55] = test system: HOP-62
[56] = test system: A498
[57] = test system: SW-620
[58] = test system: RXF 393

Structure (SMILES): O=[N+]([O-])c1ccc(-c2ccc(-c3csc(Nc4ccccc4)n3)o2)cc1
- GI50 [1]: 21 µM (inactive)
- GI50 [2]: 17.3 µM (inactive)
- GI50 [3]: 17.1 µM (inactive)
- GI50 [4]: 2.48 µM (inactive)
- GI50 [5]: 19.7 µM
- GI50 [6]: 2.93 µM (inactive)
- GI50 [7]: 17.6 µM (inactive)
- GI50 [8]: 19.1 µM (inactive)
- GI50 [9]: 29.9 µM (inactive)
- GI50 [10]: 14.6 µM (inactive)
- GI50 [11]: 3.62 µM (inactive)
- GI50 [12]: 40.6 µM (inactive)
- GI50 [13]: 25.1 µM (inactive)
- GI50 [14]: 24.9 µM (inactive)
- GI50 [15]: 17.3 µM (inactive)
- GI50 [16]: 19.5 µM (inactive)
- GI50 [17]: 20.6 µM (inactive)
- GI50 [18]: 18.2 µM (inactive)
- GI50 [19]: 17 µM (inactive)
- GI50 [20]: > 55 µM (inactive)
- GI50 [21]: 25.7 µM (inactive)
- GI50 [22]: 21.3 µM (inactive)
- GI50 [23]: 22.7 µM (inactive)
- GI50 [24]: > 100 µM (inactive)
- GI50 [25]: 19.1 µM (inactive)
- GI50 [26]: 18.8 µM (inactive)
- GI50 [27]: 15.8 µM (inactive)
- GI50 [28]: 19.2 µM (inactive)
- GI50 [29]: 18.7 µM (inactive)
- GI50 [30]: 12.2 µM (inactive)
- GI50 [31]: 19.5 µM (inactive)
- GI50 [32]: 21.5 µM (inactive)
- GI50 [33]: 18.4 µM (inactive)
- GI50 [34]: 18.6 µM (inactive)
- GI50 [35]: 17.7 µM (inactive)
- GI50 [36]: 23.3 µM (inactive)
- GI50 [37]: 20.2 µM (inactive)
- GI50 [38]: 34.6 µM (inactive)
- GI50 [39]: 23 µM (inactive)
- GI50 [40]: 8.17 µM (inactive)
- GI50 [41]: 20.6 µM (inactive)
- GI50 [42]: 18.5 µM (inactive)
- GI50 [43]: 19.6 µM (inactive)
- GI50 [44]: 17.9 µM (inactive)
- GI50 [45]: 19.3 µM (inactive)
- GI50 [46]: 20.9 µM (inactive)
- GI50 [47]: 18.6 µM (inactive)
- GI50 [48]: 40 µM (inactive)
- GI50 [49]: 25.1 µM (inactive)
- GI50 [50]: 7.59 µM (inactive)
- GI50 [51]: 19.3 µM (inactive)
- GI50 [52]: 1.9 µM (inactive)
- GI50 [53]: 19.5 µM (inactive)
- GI50 [54]: 34.8 µM (inactive)
- GI50 [55]: > 68.4 µM (inactive)
- GI50 [56]: 17.9 µM (inactive)
- GI50 [57]: 15.6 µM (inactive)

Structure (SMILES): [O-]c1c2c(nn1-c1ccc(Cl)cc1)c1ccccc1c[n+]2Cc1ccccc1
- GI50 [1]: > 100 µM (inactive)
- GI50 [2]: 80.5 µM (inactive)
- GI50 [3]: 33.3 µM (inactive)
- GI50 [4]: > 100 µM (inactive)
- GI50 [6]: > 100 µM (inactive)
- GI50 [7]: > 100 µM (inactive)
- GI50 [8]: > 100 µM (inactive)
- GI50 [9]: > 10 µM (inactive)
- GI50 [10]: 58.9 µM (inactive)
- GI50 [11]: > 100 µM (inactive)
- GI50 [12]: > 100 µM (inactive)
- GI50 [13]: > 100 µM (inactive)
- GI50 [14]: 32.2 µM (inactive)
- GI50 [15]: 46.2 µM (inactive)
- GI50 [17]: > 100 µM (inactive)
- GI50 [18]: 95.3 µM (inactive)
- GI50 [19]: 45.4 µM (inactive)
- GI50 [20]: 63.4 µM (inactive)
- GI50 [21]: > 100 µM (inactive)
- GI50 [22]: 44.6 µM (inactive)
- GI50 [23]: > 100 µM (inactive)
- GI50 [24]: 40.2 µM (inactive)
- GI50 [25]: > 100 µM (inactive)
- GI50 [26]: 80.4 µM (inactive)
- GI50 [27]: > 100 µM (inactive)
- GI50 [28]: > 100 µM (inactive)
- GI50 [29]: > 100 µM (inactive)
- GI50 [58]: 27 µM (inactive)
- GI50 [30]: > 100 µM (inactive)
- GI50 [31]: 65.9 µM (inactive)
- GI50 [32]: > 100 µM (inactive)
- GI50 [33]: 35 µM (inactive)
- GI50 [34]: > 100 µM (inactive)
- GI50 [35]: > 100 µM (inactive)
- GI50 [36]: 81.5 µM (inactive)
- GI50 [37]: > 100 µM (inactive)
- GI50 [38]: 78.9 µM (inactive)
- GI50 [39]: > 100 µM (inactive)
- GI50 [40]: > 100 µM (inactive)
- GI50 [41]: > 100 µM (inactive)
- GI50 [42]: > 100 µM (inactive)
- GI50 [43]: > 100 µM (inactive)
- GI50 [44]: > 100 µM (inactive)
- GI50 [45]: > 100 µM (inactive)
- GI50 [46]: > 100 µM (inactive)
- GI50 [47]: > 100 µM (inactive)
- GI50 [48]: > 100 µM (inactive)
- GI50 [49]: 62.4 µM (inactive)
- GI50 [50]: > 100 µM (inactive)
- GI50 [51]: > 100 µM (inactive)
- GI50 [52]: > 100 µM (inactive)
- GI50 [53]: 58.7 µM (inactive)
- GI50 [54]: > 100 µM (inactive)
- GI50 [55]: > 100 µM (inactive)
- GI50 [57]: > 100 µM (inactive)

Structure (SMILES): Fc1cccc(F)c1C1SCc2nc3ccccc3n21 (configuration not stated) [THIAZOLOBENZIMIDAZOLE]
- GI50 [1]: > 100 µM (inactive)
- GI50 [2]: > 100 µM (inactive)
- GI50 [3]: > 100 µM (inactive)
- GI50 [4]: 25.4 µM (inactive)
- GI50 [5]: 54.5 µM
- GI50 [6]: 52.4 µM (inactive)
- GI50 [8]: 61.4 µM (inactive)
- GI50 [9]: 44.9 µM (inactive)
- GI50 [10]: 53.7 µM (inactive)
- GI50 [11]: 35.3 µM (inactive)
- GI50 [12]: 97.5 µM (inactive)
- GI50 [13]: > 100 µM (inactive)
- GI50 [14]: > 100 µM (inactive)
- GI50 [15]: > 100 µM (inactive)
- GI50 [16]: 28.5 µM (inactive)
- GI50 [17]: > 100 µM (inactive)
- GI50 [18]: > 100 µM (inactive)
- GI50 [19]: 55.5 µM (inactive)
- GI50 [20]: > 100 µM (inactive)
- GI50 [22]: 47 µM (inactive)
- GI50 [23]: 62.7 µM (inactive)
- GI50 [24]: > 100 µM (inactive)
- GI50 [25]: 64.6 µM (inactive)
- GI50 [26]: > 100 µM (inactive)
- GI50 [27]: 53.6 µM (inactive)
- GI50 [28]: > 100 µM (inactive)
- GI50 [29]: 51.5 µM (inactive)
- GI50 [58]: > 100 µM (inactive)
- GI50 [30]: 35.2 µM (inactive)
- GI50 [31]: 77.8 µM (inactive)
- GI50 [32]: 65.2 µM (inactive)
- GI50 [33]: 52 µM (inactive)
- GI50 [34]: > 100 µM (inactive)
- GI50 [35]: 85.9 µM (inactive)
- GI50 [36]: > 100 µM (inactive)
- GI50 [37]: 45.5 µM (inactive)
- GI50 [38]: 39.8 µM (inactive)
- GI50 [39]: 50.2 µM (inactive)
- GI50 [40]: 63.5 µM (inactive)
- GI50 [41]: > 100 µM (inactive)
- GI50 [42]: 80.4 µM (inactive)
- GI50 [43]: > 100 µM (inactive)
- GI50 [44]: 60.8 µM (inactive)
- GI50 [45]: > 100 µM (inactive)
- GI50 [46]: > 100 µM (inactive)
- GI50 [47]: 60.4 µM (inactive)
- GI50 [48]: > 100 µM (inactive)
- GI50 [49]: 80.9 µM (inactive)
- GI50 [50]: 36.5 µM (inactive)
- GI50 [51]: 47.4 µM (inactive)
- GI50 [53]: 31.5 µM (inactive)
- GI50 [54]: 47.3 µM (inactive)
- GI50 [55]: > 100 µM (inactive)
- GI50 [56]: > 100 µM (inactive)
- GI50 [57]: > 100 µM (inactive)
